Each structure is given as a SMILES string. Read-outs that look alike come from different tables or passages of the source.

For test [1], the system named is T1, Shp1 cSH2 domain.
T1 construct: The purified C-terminal SH2 domain (cSH2) was selected for these studies; made in house
The experiment in a line: NMR 1H-15N HSQC titration of cSH2 domain. The format is binding, human. The note with it: fast exchange regime, cSH2:GroPIns4P up to 1:5. As to the method: A suite of triple resonance experiments (Additional file 1 Table S1) was used for assignment of the ^1H, ^15N and ^13C backbone resonances of the Shp1 cSH2 domain. All experiments were acquired on a 700 MHz Bruker Avance instrument equipped with a TCI cryoprobe. Assignment of the cSH2 domain backbone resonances was complete with the exception of the resonances of S109 and G175. ^15N cSH2 (200 μM) was titrated with GroPIns4P, and a series of ^1H–^15N-HSQC spectra were recorded at different cSH2:GroPIns4P ratios up to a 1:5 ratio. […] The ^1HN and ^15N chemical shift perturbations were estimated by using the following equation [23]: Δδ=ΔHN^2+ΔN/5^2/2^1/2
Where ΔHN and ΔN are the differences between the ^1H and ^15N chemical shifts of free cSH2 and cSH2 in the presence of GroPIns4P, respectively.

The subject of test [2] is NIH3T3 cells. As to the kind of experiment: Wound-healing assay. The format is cell-based. As to the method:
To perform the wound-healing assay, NIH3T3 cells were seeded in 6-well tissue culture plates to a final density of 3 × 10^5 cells/well and maintained at 37 °C and 5% CO2 for 24 h until confluence before being starved overnight in DMEM containing 1% bovine serum. The cell monolayer was wounded by scratching with a 10 μL standard sterile pipette tip. The scratched monolayer was rinsed twice with DMEM containing 1% bovine serum to remove cell debris and incubated with or without 50 μM GroPIns4P. […] In detail, the input image was processed by applying a Sobel edge detector [26], obtaining a gradient image. A threshold process was then performed on the gradient image to obtain the foreground corresponding to the wound area. Particularly, all of the pixels of the gradient image with values less than the threshold θ were assumed to be pixels of the foreground (experimentally, θ is set to 4). Finally, procedures based on morphological operations were used to remove small regions and to fill holes of the wound area to complete detection and analysis.

Test [3] addresses T2, Shp1 (Homo sapiens, UniProt P29350).
T2 construct: the C-terminal truncated form of human Shp1 cDNA (His-Shp1; amino acids 1–529); made in house; host or cells: E. coli BL21(DE3)
T2 sequence (P29350 1-529 isoform P29350-3): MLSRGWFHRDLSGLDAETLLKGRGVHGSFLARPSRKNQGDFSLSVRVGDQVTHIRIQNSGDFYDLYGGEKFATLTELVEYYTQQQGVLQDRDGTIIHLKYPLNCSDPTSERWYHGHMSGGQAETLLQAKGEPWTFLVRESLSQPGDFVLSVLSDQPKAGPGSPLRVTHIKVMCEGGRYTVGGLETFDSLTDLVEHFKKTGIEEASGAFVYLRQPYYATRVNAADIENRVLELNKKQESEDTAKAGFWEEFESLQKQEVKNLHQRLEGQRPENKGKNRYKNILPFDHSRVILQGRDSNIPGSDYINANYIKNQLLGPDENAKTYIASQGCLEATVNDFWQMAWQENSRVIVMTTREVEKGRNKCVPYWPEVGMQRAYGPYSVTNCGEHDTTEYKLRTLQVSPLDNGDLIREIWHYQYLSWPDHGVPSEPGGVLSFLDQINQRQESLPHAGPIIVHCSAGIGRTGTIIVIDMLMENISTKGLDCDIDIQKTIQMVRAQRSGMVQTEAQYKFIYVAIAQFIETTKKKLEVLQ
As to the kind of experiment: Isothermal titration calorimetry, Shp1 WT. Format: binding. As to the method:
ITC measurements were performed by using a Nano-ITC III (TA instruments, New Castle, DE, USA) with a reaction cell volume of 1 ml kept at 25 °C. A protein solution of 10 μM was titrated into the calorimetric cell with a solution of 50–100 μM of the ligand GroPIns4P (Ins4P) in the syringe. A sequence of 16 injections of 15 μL volume was programmed with a stirring speed of 250 rpm at 500 s intervals. Protein samples were prepared with protein solutions at 25 °C in 20 mM Tris buffer pH 7.4 with 50 mM NaCl and 1 mM TCEP. To minimise the differences in buffer composition and pH between cell and syringe, both ligand and protein solutions were prepared with the same batch of buffer. The heat of dilution of the GroPIns4P into the buffer solution was measured in a separate experiment and appropriate corrections were made. The heat evolved after each ligand injection was obtained from the integral of the calorimetric signal. Raw data were integrated, corrected for non-specific heats and normalized for concentration. The equilibrium dissociation constant (KD), binding enthalpy (ΔbH) and binding stoichiometry (n) were obtained by nonlinear regression of the experimental data using a model of independent binding sites, by means of the NanoAnalyze software. Experiments were performed in duplicate.
(In general: ITC needs no label: the signal is the heat of the interaction.)

The subject of test [4] is Src. Also noted: method as in PMID 18722484. Conditions: cited from earlier work.

Turning to `O=P(O)(O)OC1C(O)C(O)C(OP(=O)(O)OCC(O)CO)C(O)C1O` (stereo not shown) [GroPIns4P, glycerophosphoinositol 4-phosphate], the “exchange rate between bound and free cSH2” value in test [1] is “higher than 2 × 10^3 s^-1”. Further, the “increase of wound closure compared to the control” value in test [2] (50 μM, 6 h after scratching) is listed as 65%. Besides, the wound closure entry in test [2] (50 μM, at 30 h) is on record as “almost complete”. Further, the “rescue of EGF effect in cells treated with cPLA2α inhibitor” value in test [2] (EGF 10 ng/ml, cPLA2α inhibitor, 50 μM GroPIns4P) is on record as “could be rescued”. Also, the Kd was 300 nM in test [3] (ITC, 25 °C, Shp1 WT, read-out: KD); 300 to 800 nM in test [3] (summary over ITC, Trp fluorescence and SPR competition, read-out: affinity of the binding). In addition, the “direct interaction with Src” value in test [4] is recorded as “no direct interaction”.

Source of the values: article PMC6396489 (Cell Communication and Signaling : CCS, 2019).
